Assays:
[1] = system: substance P induced plasma extravasation; experiment: Antagonism of substance P induced plasma extravasation in guinea-pigs; format: in vivo; settings: lowest active dose, female guinea-pigs; for LAD nose: compound 1 hour prior to substance P (2 mg/kg, femoral artery), blue colouring of nose 10 minutes after challenge; for LAD conjunctiva / LAD forepaws / LAD trachea / LAD urinary bladder: compound 1 hour prior to substance P; for LAD conjunctiva: blue colouring of conjunctiva 10 minutes after challenge; for LAD forepaws: blue colouring of forepaws 10 minutes after challenge; for LAD trachea: blue colouring of trachea 30 minutes after challenge; for LAD urinary bladder: blue colouring of urinary bladder 30 minutes after challenge
Description: (§1) The compounds of the present invention are potent inhibitors of neurokinin-mediated effects, in particular those mediated via the NK1 receptor, and may therefore be described as tachykinin antagonists, especially as substance P antagonists, as indicated in vitro by the antagonism of substance P induced relaxation of pig coronary arteries which is described hereinafter. The binding affinity of the present compounds for the human, guinea-pig and gerbil neurokinin receptors may be determined in vitro in a receptor binding test using ^3H-substance-P as radioligand. The subject compounds also show substance-P antagonistic activity in vivo as may be evidenced by, for instance, the antagonism of substance P-induced plasma extravasation in guinea-pigs, or the antagonism of drug-induced emesis in ferrets (Watson et al., Br. J. Pharmacol. 115, 84-94, 1995).
Antagonism of substance P induced plasma extravasation in guinea-pigs
Plasma extravasation was induced by injection of substance P (2 mg/kg) in the femoral artery of female guinea-pigs. Evans Blue dye (30 mg/kg) was injected simultaneously. The test compound or solvent was administered 1 hour prior to substance P injection. 10 minutes after challenge, the aminals were checked for blue colouring (a direct measure for plasma extravasation) of the nose, the forepaws, and the conjectiva. 30 minutes after challenge, the animals were sacrificed by CO2 gas inhalation and checked for blue colouring of the trachea and the urinary bladder. […]

[2] = system: substance-P induced relaxation of the pig coronary arteries; experiment: Antagonism of substance-P induced relaxation of the pig coronary arteries; format: cell-based; settings: concentration at which 50% of the response to 10^−9 M substance P was inhibited, 30 minutes incubation, prostaglandin F2a precontracted segments
Description: as §1
Antagonism of substance-P induced relaxation of the pig coronary arteries
Segments of coronary artieries taken from pigs (killed by injection of an overdose of sodium pentobarbital) were inverted and mounted for recordign of isometric tension in organ baths (volume 20 ml) with the endothelium at the outside. The preparations were bathed in Krebs-Henseleit solution. The solution was kept at 37° C. and gassed with a mixture of O2/CO2 (95/5). After stabilisation of the preparations, prostaglandin F2a (10^−5 M) was administered to induce a contraction. This was repeated until contractivle responses became stable. Then prostaglandin F2a was again administered and substance P(3×10^−10 M and 10^−9 M cumulatively) was added. Substance P induced endothelium dependent relaxations. After washing away the agonists, a known concentratin of a compound of formula (I) was added. After an incubation period of 30 minutes, prostaglandin F2a ([…]) and the same concentrations of sbustance P as described above were again administered in the presence of the compound to be tested. Relaxations caused by substance P were expressed as relaxations under control conditions, and percent inhibition of the response to […] substance P was taken as a measure of the antagonistic activity of the compound to be tested. Table 6 lists the IC50 values (concentration at which 50% of the response to […] substance P was inhibited by the test compound) for the tested compounds.

Structure (SMILES) | LAD nose [1] | LAD conjunctiva [1] | LAD forepaws [1] | LAD trachea [1] | LAD urinary bladder [1] | IC50 [2] | IC50 ([2]; Sus scrofa, 0.5 h)
Cc1cc(C)cc(C(=O)N2CCC(N3CCN(C(c4ccccc4)c4ccccc4)CC3)CC2Cc2ccccc2)c1 (racemic) [Compound 12] | >40.0 mg/kg | >40.0 mg/kg | >40.0 mg/kg | >40 mg/kg | 40.0 mg/kg | – | –
O=C(c1cc(C(F)(F)F)cc(C(F)(F)F)c1)N1CCC(N2CCN(c3nc4ccccc4[nH]3)CC2)CC1Cc1ccccc1 (racemic) [Compound 40] | 10.0 mg/kg | 10.0 mg/kg | 10.0 mg/kg | >40 mg/kg | >40 mg/kg | – | –
Cc1cc(C)cc(NC(=O)CN2CCN(C3CCN(C(=O)c4cc(C(F)(F)F)cc(C(F)(F)F)c4)C(Cc4ccccc4)C3)CC2)c1 (racemic) [Compound 47] | 40.0 mg/kg | 40.0 mg/kg | 40.0 mg/kg | >40 mg/kg | >40 mg/kg | – | –
Cc1cccc(C)c1NC(=O)CN1CCN(C2CCN(C(=O)c3cc(C(F)(F)F)cc(C(F)(F)F)c3)C(Cc3ccccc3)C2)CC1 (racemic) [Compound 58] | – | – | – | – | – | 0.24 nM | –
O=C(c1cc(C(F)(F)F)cc(C(F)(F)F)c1)N1CCC(N2CCCN(Cc3ccccc3)CC2)CC1Cc1ccccc1 (racemic) [Compound 63] | – | – | – | – | – | 8.38 nM | –
Cc1cccc(C)c1NC(=O)CN1CCCN(C2CCN(C(=O)c3cc(C(F)(F)F)cc(C(F)(F)F)c3)C(Cc3ccccc3)C2)CC1 (racemic) [Compound 65] | – | – | – | – | – | 6.39 nM | –
CCOCCn1c(NC(=O)CN2CCN(C3CCN(C(=O)c4cc(C(F)(F)F)cc(C(F)(F)F)c4)C(Cc4ccccc4)C3)CC2)nc2ccccc21 (racemic) [Compound 69] | – | – | – | – | – | 1.57 nM | –
NC(=O)c1cc(Cl)c(NC(=O)CN2CCN([C@@H]3CCN(C(=O)c4cc(C(F)(F)F)cc(C(F)(F)F)c4)[C@@H](Cc4ccccc4)C3)CC2)c(Cl)c1 (racemic) [Compound 74] | 10.0 mg/kg | 10.0 mg/kg | 10.0 mg/kg | >40 mg/kg | >40 mg/kg | – | –
CC(C)NC(=O)CN1CCN(C2CCN(C(=O)c3cc(C(F)(F)F)cc(C(F)(F)F)c3)C(Cc3ccccc3)C2)CC1 (racemic) [Compound 76] | – | – | – | – | – | 14.1 nM | –
CC(=O)NCC(c1ccccc1)N1CCN(C2CCN(C(=O)c3cc(C(F)(F)F)cc(C(F)(F)F)c3)C(Cc3ccccc3)C2)CC1 (racemic) [Compound 82] | 2.50 mg/kg | 2.50 mg/kg | 2.50 mg/kg | 10.0 mg/kg | >40 mg/kg | – | –
CC(=O)NCC(c1ccccc1)N1CCN(C2CCN(C(=O)c3cc(C(F)(F)F)cc(C(F)(F)F)c3)C(Cc3ccccc3)C2)CC1 (racemic) [Compound 83] | 0.63 mg/kg | 2.50 mg/kg | 0.63 mg/kg | >40 mg/kg | 0.63 mg/kg | – | –
O=C(c1cc(C(F)(F)F)cc(C(F)(F)F)c1)N1CCC(N2CCN(CC(O)c3ccccc3)CC2)CC1Cc1ccccc1 (racemic) [Compound 86] | – | – | – | – | – | 2.13 nM | –
O=C(O)C=CC(=O)O.O=C(O)C=CC(=O)O.O=C(c1cc(C(F)(F)F)cc(C(F)(F)F)c1)N1CCC(N2CCN(CCc3ccccc3)CC2)CC1Cc1ccccc1 (racemic) [Compound 90] | 10.0 mg/kg | 10.0 mg/kg | 10.0 mg/kg | 10.0 mg/kg | >40 mg/kg | – | –
CN(CC(CCN1CCN(C2CCN(C(=O)c3cc(C(F)(F)F)cc(C(F)(F)F)c3)C(Cc3ccccc3)C2)CC1)c1ccc(Cl)c(Cl)c1)C(=O)c1ccccc1 (racemic) [Compound 92] | – | – | – | – | – | 0.78 nM | –
CN(CC(CCN1CCN([C@H]2CCN(C(=O)c3cc(C(F)(F)F)cc(C(F)(F)F)c3)[C@@H](Cc3ccccc3)C2)CC1)c1ccc(Cl)c(Cl)c1)C(=O)c1ccccc1 (mixture of isomers) [Compound 93, (±)-cis-N-[4-[4-[1-[3,5-bis(trifluoromethyl)benzoyl]-2-(phenylmethyl)-4-piperidinyl]-1-piperazinyl]-2-(3,4-dichlorophenyl)butyl]-N-Methylbenzamide (E)-2-butenedioate (1:2)] | – | – | – | – | – | – | 4.99 nM
CCn1nnn(CCN2CCN(C3CCN(C(=O)c4cc(C(F)(F)F)cc(C(F)(F)F)c4)C(Cc4ccccc4)C3)CC2)c1=O.O=C(O)C=CC(=O)O.O=C(O)C=CC(=O)O (racemic) [Compound 96] | 10.0 mg/kg | 10.0 mg/kg | 10.0 mg/kg | >40 mg/kg | >40 mg/kg | – | –
O=C(CN1CCN(C2CCN(C(=O)c3cc(C(F)(F)F)cc(C(F)(F)F)c3)C(Cc3ccccc3)C2)CC1)Nc1nccn1Cc1ccccc1 (racemic) [Compound 97] | – | – | – | – | – | 1.58 nM | –
O=C(CN1CCN(C2CCN(C(=O)c3cc(C(F)(F)F)cc(C(F)(F)F)c3)C(Cc3ccccc3)C2)CC1)C1CCc2ccccc21 (racemic) [Compound 99] | – | – | – | – | – | 1.46 nM | –
Cc1cccc(C)c1NC(=O)C(c1ccccc1)N1CCN(C2CCN(C(=O)c3cc(C(F)(F)F)cc(C(F)(F)F)c3)C(Cc3ccccc3)C2)CC1 (racemic) [Compound 102] | – | – | – | – | – | 1.85 nM | –
Cc1cccc(C)c1NC(=O)CCN1CCN(C2CCN(C(=O)c3cc(C(F)(F)F)cc(C(F)(F)F)c3)C(Cc3ccccc3)C2)CC1.O=C(O)C=CC(=O)O.O=C(O)C=CC(=O)O (racemic) [Compound 103] | 2.50 mg/kg | 2.50 mg/kg | 2.50 mg/kg | 10.0 mg/kg | 2.50 mg/kg | – | –
Cc1cccc2c1N(C(=O)CN1CCN(C3CCN(C(=O)c4cc(C(F)(F)F)cc(C(F)(F)F)c4)C(Cc4ccccc4)C3)CC1)CC2 (racemic) [Compound 104] | – | – | – | – | – | 0.3 nM | –
Cc1cc(C)cc(C(=O)NCCN2CCN(C3CCN(C(=O)c4cc(C(F)(F)F)cc(C(F)(F)F)c4)C(Cc4ccccc4)C3)CC2)c1 (racemic) [Compound 115] | – | – | – | – | – | 2.23 nM | –
O=C(c1cc(C(F)(F)F)cc(C(F)(F)F)c1)N1CCC(N2CCN(c3cccc(C(F)(F)F)c3)CC2)CC1Cc1ccccc1 (racemic) [Compound 120] | – | – | – | – | – | 0.82 nM | –
O=C(CN1CCN(C2CCN(C(=O)c3cc(C(F)(F)F)cc(C(F)(F)F)c3)C(Cc3ccccc3)C2)CC1)N1Cc2ccccc2C1 (racemic) [Compound 121] | – | – | – | – | – | 2.77 nM | –
O=C(CN1CCN(C2CCN(C(=O)c3cc(C(F)(F)F)cc(C(F)(F)F)c3)C(Cc3ccccc3)C2)CC1)N1Cc2ccccc2C1 (racemic) [Compound 122] | – | – | – | – | – | 1.68 nM | –
Cc1cccc(C)c1NC(=O)CN1CCN(C2CCN(C(=O)c3cc(C(F)(F)F)cc(C(F)(F)F)c3)C(Cc3ccccc3)C2)CC1 (single isomer, unassigned) [Compound 124] | – | – | – | – | – | 0.06 nM | –
Cc1cc(C)cc(C(=O)N2CCC(N3CCN(CC(=O)Nc4c(C)cccc4C)CC3)CC2Cc2ccccc2)c1 (stereo not drawn) [Compound 5] | – | – | – | – | – | 4.61 nM | –
Cc1cc(C)cc(C(=O)N2CCC(N3CCN(CC=Cc4ccccc4)CC3)CC2Cc2ccccc2)c1 (stereo not drawn) [Compound 8] | 10.0 mg/kg | 10.0 mg/kg | 10.0 mg/kg | >40 mg/kg | >40 mg/kg | – | –
O=C(c1ccco1)N1CCN(C2CCN(C(=O)c3cc(C(F)(F)F)cc(C(F)(F)F)c3)C(Cc3ccccc3)C2)CC1 (stereo not drawn) [Compound 21] | 10.0 mg/kg | 10.0 mg/kg | 10.0 mg/kg | >40 mg/kg | 10.0 mg/kg | – | –
Cc1ncc(Cn2c(N3CCN(C4CCN(C(=O)c5cc(C(F)(F)F)cc(C(F)(F)F)c5)C(Cc5ccccc5)C4)CC3)nc3ccccc32)o1 (stereo not drawn) [Compound 23] | 10.0 mg/kg | 40.0 mg/kg | 10.0 mg/kg | >40 mg/kg | >40 mg/kg | – | –
